Assay results as given in ChEMBL document CHEMBL1201862, “PubChem BioAssay data set” (2004).
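Interpolation was linear, between the two tested concentrations surrounding the appropriate level; five concentrations were tested over 48 hours in 96-well plates. GI50 = concentration required for 50% inhibition of growth.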 The source made the active and inactive calls. No stated cut-off is given here; in the data, active = GI50 up to about 1.1 µM and inactive = higher.

Experiments:
Assay in all cases: growth of human tumour cells (NCI), 48 h
SF-268 = tested on: SF-268
HOP-92 = tested on: HOP-92
LOX IMVI = tested on: LOX IMVI
SW-620 = tested on: SW-620
RPMI-8226 = tested on: RPMI-8226
M14 = tested on: M14
KM12 = tested on: KM12
SK-MEL-5 = tested on: SK-MEL-5
DMS-273 = tested on: DMS-273
OVCAR-4 = tested on: OVCAR-4
SK-OV-3 = tested on: SK-OV-3
NCI-H460 = tested on: NCI-H460
HCT-116 = tested on: HCT-116
U-251 = tested on: U-251
HCT-15 = tested on: HCT-15
CCRF-CEM = tested on: CCRF-CEM
EKVX = tested on: EKVX
SNB-19 = tested on: SNB-19
SNB-75 = tested on: SNB-75
DLD-1 = tested on: DLD-1
LXFL 529 = tested on: LXFL 529
COLO 205 = tested on: COLO 205
UO-31 = tested on: UO-31
UACC-257 = tested on: UACC-257
786-0 = tested on: 786-0
A549 = tested on: A549
HOP-18 = tested on: HOP-18
XF498 = tested on: XF498
K562 = tested on: K562
SNB-78 = tested on: SNB-78
SF-295 = tested on: SF-295
DMS-114 = tested on: DMS-114
ACHN = tested on: ACHN
SF-539 = tested on: SF-539
NCI-H23 = tested on: NCI-H23
SK-MEL-2 = tested on: SK-MEL-2
OVCAR-3 = tested on: OVCAR-3
SK-MEL-28 = tested on: SK-MEL-28
HL-60 = tested on: HL-60
OVCAR-5 = tested on: OVCAR-5
HCC 2998 = tested on: HCC 2998
IGROV-1 = tested on: IGROV-1
UACC-62 = tested on: UACC-62
NCI-H226 = tested on: NCI-H226
TK-10 = tested on: TK-10
MOLT-4 = tested on: MOLT-4
Malme-3M = tested on: Malme-3M
SR = tested on: SR
OVCAR-8 = tested on: OVCAR-8
SN12C = tested on: SN12C
CAKI-1 = tested on: CAKI-1
M19-MEL = tested on: M19-MEL
NCI-H522 = tested on: NCI-H522
HT-29 = tested on: HT-29
HOP-62 = tested on: HOP-62
KM-20L2 = tested on: KM-20L2
A498 = tested on: A498
RXF 393 = tested on: RXF 393

Question: How did the GI50 (SF-268) turn out when COc1cc(OC)cc(-c2cc(O)c3cc4c(cc3n2)OCO4)c1 was run?
Answer: 0.54 µM (active)

Question: What about the GI50 (HOP-92) of the same compound?
Answer: 0.314 µM (active)

Question: What about the GI50 (LOX IMVI) of the same compound?
Answer: 0.367 µM (active)

Question: And the GI50 (SW-620)?
Answer: 0.203 µM (active)

Question: What about the GI50 (RPMI-8226) of the same compound?
Answer: 0.389 µM (active)

Question: And the GI50 (M14)?
Answer: 0.239 µM (active)

Question: What about the GI50 (KM12) of the same compound?
Answer: 0.17 µM (active)

Question: What about the GI50 (SK-MEL-5) of the same compound?
Answer: 0.163 µM (active)

Question: And the GI50 (DMS-273)?
Answer: 0.306 µM (active)

Question: And the GI50 (OVCAR-4)?
Answer: 17.1 µM (inactive)

Question: And the GI50 (SK-OV-3)?
Answer: 0.27 µM (active)

Question: What about the GI50 (NCI-H460) of the same compound?
Answer: 0.26 µM (active)

Question: What about the GI50 (HCT-116) of the same compound?
Answer: 0.169 µM (active)

Question: What about the GI50 (U-251) of the same compound?
Answer: 0.221 µM (active)

Question: And the GI50 (HCT-15)?
Answer: 0.263 µM

Question: What about the GI50 (CCRF-CEM) of the same compound?
Answer: 0.206 µM (active)

Question: And the GI50 (EKVX)?
Answer: 12.6 µM (inactive)

Question: What about the GI50 (SNB-19) of the same compound?
Answer: 0.8 µM (active)

Question: What about the GI50 (SNB-75) of the same compound?
Answer: 2.32 µM (inactive)

Question: What about the GI50 (DLD-1) of the same compound?
Answer: 0.311 µM (active)

Question: And the GI50 (LXFL 529)?
Answer: 0.211 µM (active)

Question: And the GI50 (COLO 205)?
Answer: 0.192 µM (active)

Question: What about the GI50 (UO-31) of the same compound?
Answer: 1.22 µM (inactive)

Question: And the GI50 (UACC-257)?
Answer: 1.96 µM (inactive)

Question: What about the GI50 (786-0) of the same compound?
Answer: 0.348 µM (active)

Question: What about the GI50 (A549) of the same compound?
Answer: 0.428 µM (active)

Question: And the GI50 (HOP-18)?
Answer: 16.3 µM (inactive)

Question: And the GI50 (XF498)?
Answer: 0.152 µM (active)

Question: And the GI50 (K562)?
Answer: 0.15 µM (active)

Question: What about the GI50 (SNB-78) of the same compound?
Answer: 0.295 µM (active)

Question: What about the GI50 (SF-295) of the same compound?
Answer: 0.2 µM (active)

Question: What about the GI50 (DMS-114) of the same compound?
Answer: 0.218 µM (active)

Question: What about the GI50 (ACHN) of the same compound?
Answer: 0.321 µM (active)

Question: What about the GI50 (SF-539) of the same compound?
Answer: 0.173 µM (active)

Question: What about the GI50 (NCI-H23) of the same compound?
Answer: 0.351 µM (active)

Question: And the GI50 (SK-MEL-2)?
Answer: 0.165 µM (active)

Question: What about the GI50 (OVCAR-3) of the same compound?
Answer: 0.136 µM (active)

Question: And the GI50 (SK-MEL-28)?
Answer: 0.194 µM (active)

Question: And the GI50 (HL-60)?
Answer: 0.162 µM (active)

Question: And the GI50 (OVCAR-5)?
Answer: 4.35 µM (inactive)

Question: What about the GI50 (HCC 2998) of the same compound?
Answer: 0.225 µM (active)

Question: What about the GI50 (IGROV-1) of the same compound?
Answer: 0.389 µM (active)

Question: And the GI50 (UACC-62)?
Answer: 0.209 µM (active)

Question: What about the GI50 (NCI-H226) of the same compound?
Answer: 0.251 µM (active)

Question: What about the GI50 (TK-10) of the same compound?
Answer: 1.74 µM (inactive)

Question: What about the GI50 (MOLT-4) of the same compound?
Answer: 0.364 µM (active)

Question: What about the GI50 (Malme-3M) of the same compound?
Answer: 0.426 µM (active)

Question: And the GI50 (SR)?
Answer: 0.199 µM (active)

Question: And the GI50 (OVCAR-8)?
Answer: 0.395 µM (active)

Question: What about the GI50 (SN12C) of the same compound?
Answer: 0.367 µM (active)

Question: What about the GI50 (CAKI-1) of the same compound?
Answer: 0.309 µM (active)

Question: What about the GI50 (M19-MEL) of the same compound?
Answer: 0.321 µM (active)

Question: What about the GI50 (NCI-H522) of the same compound?
Answer: 0.139 µM (active)

Question: And the GI50 (HT-29)?
Answer: 0.295 µM (active)

Question: What about the GI50 (HOP-62) of the same compound?
Answer: 0.486 µM (active)

Question: And the GI50 (KM-20L2)?
Answer: 0.217 µM (active)

Question: How did the GI50 (SF-268) turn out when COC(=O)C1=C(c2ccc3c(c2)OCO3)O[C@H](c2ccc3c(c2)OCO3)[C@H]1COC(C)=O was run?
Answer: 87.5 µM (inactive)

Question: What about the GI50 (HOP-92) of the same compound?
Answer: 30.5 µM (inactive)

Question: And the GI50 (LOX IMVI)?
Answer: 48.4 µM (inactive)

Question: What about the GI50 (SW-620) of the same compound?
Answer: > 100 µM (inactive)

Question: What about the GI50 (RPMI-8226) of the same compound?
Answer: 60.4 µM (inactive)

Question: And the GI50 (A498)?
Answer: 24.6 µM (inactive)

Question: And the GI50 (M14)?
Answer: 32.6 µM (inactive)

Question: What about the GI50 (KM12) of the same compound?
Answer: 62.4 µM (inactive)

Question: And the GI50 (SK-MEL-5)?
Answer: 24.5 µM (inactive)

Question: What about the GI50 (DMS-273) of the same compound?
Answer: 56.2 µM (inactive)

Question: And the GI50 (OVCAR-4)?
Answer: 36.6 µM (inactive)

Question: What about the GI50 (SK-OV-3) of the same compound?
Answer: 41 µM (inactive)

Question: What about the GI50 (NCI-H460) of the same compound?
Answer: 63.5 µM (inactive)

Question: What about the GI50 (HCT-116) of the same compound?
Answer: 51.5 µM (inactive)

Question: And the GI50 (U-251)?
Answer: 53 µM (inactive)

Question: What about the GI50 (HCT-15) of the same compound?
Answer: 53.1 µM

Question: What about the GI50 (CCRF-CEM) of the same compound?
Answer: 78.9 µM (inactive)

Question: What about the GI50 (EKVX) of the same compound?
Answer: 59 µM (inactive)

Question: What about the GI50 (SNB-75) of the same compound?
Answer: 49.5 µM (inactive)

Question: And the GI50 (DLD-1)?
Answer: 35.7 µM (inactive)

Question: What about the GI50 (LXFL 529) of the same compound?
Answer: 32.3 µM (inactive)

Question: What about the GI50 (COLO 205) of the same compound?
Answer: 15.3 µM (inactive)

Question: What about the GI50 (UO-31) of the same compound?
Answer: 38.7 µM (inactive)

Question: What about the GI50 (UACC-257) of the same compound?
Answer: 55.2 µM (inactive)

Question: What about the GI50 (786-0) of the same compound?
Answer: 36.2 µM (inactive)

Question: And the GI50 (A549)?
Answer: 46.7 µM (inactive)

Question: What about the GI50 (HOP-18) of the same compound?
Answer: 36.6 µM (inactive)

Question: What about the GI50 (XF498) of the same compound?
Answer: 41.8 µM (inactive)

Question: What about the GI50 (K562) of the same compound?
Answer: 35.4 µM (inactive)

Question: And the GI50 (SNB-78)?
Answer: 66.1 µM (inactive)

Question: And the GI50 (SF-295)?
Answer: 34.4 µM (inactive)

Question: And the GI50 (DMS-114)?
Answer: 57.9 µM (inactive)

Question: What about the GI50 (ACHN) of the same compound?
Answer: 29.4 µM (inactive)

Question: What about the GI50 (SF-539) of the same compound?
Answer: 61.2 µM (inactive)

Question: What about the GI50 (NCI-H23) of the same compound?
Answer: 37.3 µM (inactive)

Question: And the GI50 (SK-MEL-2)?
Answer: 63 µM (inactive)

Question: And the GI50 (OVCAR-3)?
Answer: 55.6 µM (inactive)

Question: And the GI50 (SK-MEL-28)?
Answer: 65 µM (inactive)

Question: What about the GI50 (HL-60) of the same compound?
Answer: 21.8 µM (inactive)

Question: And the GI50 (OVCAR-5)?
Answer: 39.6 µM (inactive)

Question: What about the GI50 (RXF 393) of the same compound?
Answer: 40 µM (inactive)

Question: What about the GI50 (HCC 2998) of the same compound?
Answer: 35.7 µM (inactive)

Question: What about the GI50 (IGROV-1) of the same compound?
Answer: 63.5 µM (inactive)

Question: What about the GI50 (UACC-62) of the same compound?
Answer: 38.6 µM (inactive)

Question: What about the GI50 (NCI-H226) of the same compound?
Answer: 39 µM (inactive)

Question: And the GI50 (TK-10)?
Answer: 46.7 µM (inactive)

Question: What about the GI50 (MOLT-4) of the same compound?
Answer: 35.2 µM (inactive)

Question: And the GI50 (Malme-3M)?
Answer: 53.2 µM (inactive)

Question: What about the GI50 (SR) of the same compound?
Answer: 32.1 µM (inactive)

Question: And the GI50 (OVCAR-8)?
Answer: 45.8 µM (inactive)

Question: What about the GI50 (SN12C) of the same compound?
Answer: 45.2 µM (inactive)

Question: What about the GI50 (CAKI-1) of the same compound?
Answer: 27.5 µM (inactive)

Question: What about the GI50 (M19-MEL) of the same compound?
Answer: 33.3 µM (inactive)

Question: What about the GI50 (HT-29) of the same compound?
Answer: 36.2 µM (inactive)

Question: What about the GI50 (HOP-62) of the same compound?
Answer: 58.5 µM (inactive)

Question: And the GI50 (KM-20L2)?
Answer: 71.1 µM (inactive)
